pEC50, pIC50: −log10 of the molar value. Where two headings read alike, the source gives them in different places.
Key:
[1] = tested on: HCV sub-genomic replicon (1377/NS3-3') in HuH-7 hepatoma cells (GS4.3); test: Quantitation by ELISA of NPTII in the HCV sub-genomic replicon, GS4.3; assay type: cell-based, hepatitis C virus (HCV); conditions: read-out: Replicon EC50
In short: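 GS4.3 cells (HuH-7 carrying HCV 1377/NS3-3′ replicon) treated 72 h at 37 °C with compound at 3-fold dilutions from 10 μM to 56 pM final, 1% DMSO, without G418. NPTII in lysates quantified by ELISA (450 nm). Signal expressed as percent of DMSO control; EC50 by 4-parameter fit.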

[2] = molecular target: T1, NS3/NS4A-2 (full-length HCV NS3 protease complexed with NS4A-2) (Hepatitis C virus genotype 1a, UniProt P27958); test: NS3 inhibition assay (NS3-NS4 protease assay); assay type: biochemical
T1 construct: Recombinant E. coli or Baculovirus full-length NS3; host or cells: E. coli or baculovirus (insect cells)
T1 sequence (P27958 1027-1657, one chain of several): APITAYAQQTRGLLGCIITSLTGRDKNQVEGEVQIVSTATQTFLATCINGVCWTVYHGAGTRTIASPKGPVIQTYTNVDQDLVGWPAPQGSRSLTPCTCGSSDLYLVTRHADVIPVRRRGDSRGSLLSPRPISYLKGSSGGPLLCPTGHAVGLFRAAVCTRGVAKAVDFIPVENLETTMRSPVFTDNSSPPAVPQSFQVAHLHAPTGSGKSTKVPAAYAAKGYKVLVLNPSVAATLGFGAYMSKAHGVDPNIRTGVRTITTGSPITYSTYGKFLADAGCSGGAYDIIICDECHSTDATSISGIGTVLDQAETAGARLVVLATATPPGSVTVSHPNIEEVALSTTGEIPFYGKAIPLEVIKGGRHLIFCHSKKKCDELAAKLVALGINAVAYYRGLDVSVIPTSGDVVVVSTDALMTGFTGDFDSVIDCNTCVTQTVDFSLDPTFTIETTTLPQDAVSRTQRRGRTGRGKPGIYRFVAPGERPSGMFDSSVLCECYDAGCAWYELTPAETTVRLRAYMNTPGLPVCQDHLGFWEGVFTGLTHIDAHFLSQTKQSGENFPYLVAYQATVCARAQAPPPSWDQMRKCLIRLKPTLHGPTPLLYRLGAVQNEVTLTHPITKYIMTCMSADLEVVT
In short: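 Full-length NS3 (E. coli-expressed at 2 nM or baculovirus-expressed at 3 nM) precomplexed with excess NS4A-2 peptide and preincubated with compound (top concentration 50 μM) for 10 min at room temperature. RETS1 substrate added; fluorescence read kinetically for 30 min (ex 335/em 495 nm). IC50 converted to Ki using Km 2.03 μM (E. coli) or 1.74 μM (baculovirus).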

[3] = Hepatitis C virus, Huh-7, GS4.3 cells, 72 h incubation, NPTII ELISA
[4] = recombinant full-length NS3/NS4A-2, RETS1 substrate, kinetic fluorescence read, read-out: NS3-NS4 IC50
[5] = GS4.3 cells, 72 h incubation, NPTII ELISA

Row | Compound | pEC50 [1, 3] | pIC50 [2, 4] | pEC50 ([1]; Hepatitis C virus, Huh-7, 72 h) | pIC50 [2] | pEC50 [1, 5]
1 | CC[C@@H]1C[C@]1(NC(=O)[C@@H]1C[C@@H](OC(=O)N2Cc3cccc(F)c3C2)CN1C(=O)[C@@H](Nc1cccc(C(C)(C)C#N)c1)C(C)C)C(=O)NS(=O)(=O)C1CC1 [Compound 53, [(3R,5S)-1-((S)-2-(3-(2-cyanopropan-2-yl)phenylamino)-3-methylbutanoyl)-5-((1R,2R)-1-(cyclopropylsulfonylcarbamoyl)-2-ethylcyclopropylcarbamoyl)-pyrrolidin-3-yl]4-fluoroisoindoline-2-carboxylate] | > 7.00 | > 7.00 |  |  | 
2 | CC[C@@H]1C[C@]1(NC(=O)[C@@H]1C[C@@H](OC(=O)N2Cc3cccc(Cl)c3C2)CN1C(=O)[C@@H](Nc1cccc(C(C)(C)C#N)c1)C(C)C)C(=O)NS(=O)(=O)C1CC1 [Compound 54, [(3R,5S)-1-((S)-2-(3-(2-cyanopropan-2-yl)phenylamino)-3-methylbutanoyl)-5-((1R,2R)-1-(cyclopropylsulfonylcarbamoyl)-2-ethylcyclopropylcarbamoyl)-pyrrolidin-3-yl]4-chloroisoindoline-2-carboxylate] | > 7.00 | > 7.00 |  |  | 
3 | CC[C@@H]1C[C@]1(NC(=O)[C@@H]1C[C@@H](OC(=O)N2Cc3cccc(F)c3C2)CN1C(=O)[C@@H](Nc1cccc(C(F)(F)F)c1)C(C)(C)C)C(=O)NS(=O)(=O)C1CC1 [Compound 56, [(3R,5S)-5-((1R,2R)-1-(cyclopropylsulfonylcarbamoyl)-2-ethylcyclopropylcarbamoyl)-1-((S)-3,3-dimethyl-2-(3-(trifluoromethyl)phenylamino)butanoyl)pyrrolidin-3-yl]4-fluoroisoindoline-2-carboxylate] | > 7.00 | > 7.00 |  |  | 
4 | CC[C@@H]1C[C@]1(NC(=O)[C@@H]1C[C@@H](OC(=O)N2Cc3cccc(F)c3C2)CN1C(=O)[C@@H](Nc1cncc(C(F)(F)F)c1)C(C)(C)C)C(=O)NS(=O)(=O)C1CC1 [Compound 57, [(3R,5S)-5-((1R,2R)-1-(cyclopropylsulfonylcarbamoyl)-2-ethylcyclopropylcarbamoyl)-1-((S)-3,3-dimethyl-2-(5-(trifluoromethyl)pyridin-3-ylamino)butanoyl)pyrrolidin-3-yl]4-fluoroisoindoline-2-carboxylate] | > 7.00 | > 7.00 |  |  | 
5 | CC[C@@H]1C[C@]1(NC(=O)[C@@H]1C[C@@H](OC(=O)N2Cc3cccc(Cl)c3C2)CN1C(=O)[C@@H](Nc1cncc(C(F)(F)F)c1)C(C)(C)C)C(=O)NS(=O)(=O)C1CC1 [Compound 58, [(3R,5S)-5-((1R,2R)-1-(cyclopropylsulfonylcarbamoyl)-2-ethylcyclopropylcarbamoyl)-1-((S)-3,3-dimethyl-2-(5-(trifluoromethyl)pyridin-3-ylamino)butanoyl)pyrrolidin-3-yl]4-chloroisoindoline-2-carboxylate] | > 7.00 | > 7.00 |  |  | 
6 | CC(C)[C@H](Nc1cccc(C(C)(C)C)c1)C(=O)N1C[C@H](OC(=O)N2Cc3cccc(Cl)c3C2)C[C@H]1C(=O)N[C@]1(C(=O)NS(=O)(=O)C2CC2)C[C@H]1C1CC1 [Compound 59, [(3R,5S)-1-((S)-2-(3-tert-butylphenylamino)-3-methylbutanoyl)-5-((1R,2S)-1-(cyclopropylsulfonylcarbamoyl)-2-cyclopropylcyclopropylcarbamoyl)pyrrolidin-3-yl]4-chloroisoindoline-2-carboxylate] | > 7.00 | > 7.00 |  |  | 
7 | CC(C)(C)[C@H](Nc1cccc(C(F)(F)F)c1)C(=O)N1C[C@H](OC(=O)N2Cc3cccc(Cl)c3C2)C[C@H]1C(=O)N[C@]1(C(=O)NS(=O)(=O)C2CC2)C[C@H]1C1CC1 [Compound 60, [(3R,5S)-5-((1R,2S)-1-(cyclopropylsulfonylcarbamoyl)-2-cyclopropylcyclopropylcarbamoyl)-1-((S)-3,3-dimethyl-2-(3-(trifluoromethyl)phenylamino)-butanoyl)pyrrolidin-3-yl]4-chloroisoindoline-2-carboxylate] | > 7.00 | > 7.00 |  |  | 
8 | C=C[C@@H]1C[C@]1(NC(=O)[C@@H]1C[C@@H](OC(=O)N2Cc3cccc(Cl)c3C2)CN1C(=O)[C@@H](Nc1nc(-c2ccc(F)nc2)cs1)C1CCCCC1)C(=O)NS(=O)(=O)C1CC1 [Compound 61, [(3R,5S)-5-(((1R,2S)-1-(cyclopropylsulfonylcarbamoyl)-2-vinylcyclopropyl)carbamoyl)-1-((S)-2-cyclohexyl-2-(4-(6-fluoropyridin-3-yl)thiazol-2-ylamino)acetyl)pyrrolidin-3-yl]-4-chloroisoindoline-2-carboxylate] | > 7.00 | > 7.00 |  |  | 
9 | C=C[C@@H]1C[C@]1(NC(=O)[C@@H]1C[C@@H](OC(=O)N2Cc3cccc(Cl)c3C2)CN1C(=O)[C@@H](Nc1nc(C(F)(F)F)cs1)C1CCCCC1)C(=O)NS(=O)(=O)C1CC1 [Compound 63, [(3R,5S)-5-(((1R,2S)-1-(Cyclopropylsulfonylcarbamoyl)-2-vinylcyclopropyl)carbamoyl)-1-((S)-2-cyclohexyl-2-(4-(trifluoromethyl)thiazol-2-ylamino)acetyl)pyrrolidin-3-yl]4-chloroisoindoline-2-carboxylate] | > 7.00 | > 7.00 |  |  | 
10 | CC(C)(C)[C@H](Nc1cccc(C(F)(F)F)c1)C(=O)N1C[C@H]2[C@@H]([C@H]1C(=O)NC(CC1CCC1)C(=O)C(N)=O)C2(C)C (stereo partly shown) [Compound 68] |  |  | 4.30 to 5.00 | 6.00 to 7.00 | 
11 | CC[C@@H]1C[C@]1(NC(=O)[C@@H]1C[C@@H](Oc2nc3ccccc3s2)CN1C(=O)[C@@H](Nc1cccc(C(F)(F)F)c1)C(C)(C)C)C(=O)NS(=O)(=O)C1CC1 [Compound 69] | > 7.00 | > 7.00 |  |  | 
12 | CC[C@@H]1C[C@]1(NC(=O)[C@@H]1C[C@@H](Oc2nc3ccccc3s2)CN1C(=O)[C@@H](Nc1cncc(C(F)(F)F)c1)C(C)(C)C)C(=O)NS(=O)(=O)C1CC1 [Compound 70] | > 7.00 | > 7.00 |  |  | 
13 | CC[C@@H]1C[C@]1(NC(=O)[C@@H]1C[C@@H](OC(=O)N2Cc3cccc(Cl)c3C2)CN1C(=O)[C@@H](Nc1cccc(C(F)(F)F)c1)C(C)(C)C)C(=O)NOC(C)(C)C [Compound 71] | 6.00 to 7.00 | 6.00 to 7.00 |  |  | 
14 | CC[C@@H]1C[C@]1(NC(=O)[C@@H]1C[C@@H](OC(=O)N2Cc3cccc(Cl)c3C2)CN1C(=O)[C@@H](Nc1cccc(C(F)(F)F)c1)C(C)(C)C)C(=O)NOCC1CC1 [Compound 72] | 6.00 to 7.00 | 6.00 to 7.00 |  |  | 
15 | CC[C@@H]1CC1(NC(=O)[C@@H]1C[C@@H](OC(=O)N2Cc3cccc(Cl)c3C2)CN1C(=O)[C@@H](Nc1cccnc1)C(C)(C)C)C(=O)NS(=O)(=O)C1CC1 (stereo partly shown) [Compound 74] | > 7.00 | > 7.00 |  |  | 
16 | CC[C@@H]1C[C@]1(NC(=O)[C@@H]1C[C@@H](OC(=O)N2Cc3cccc(Cl)c3C2)CN1C(=O)[C@@H](Nc1cccc(N2CCOCC2)c1)C(C)(C)C)C(=O)NS(=O)(=O)C1CC1 [Compound 75] | > 7.00 | > 7.00 |  |  | 
17 | CC[C@@H]1C[C@]1(NC(=O)[C@@H]1C[C@@H](OC(=O)N2Cc3cccc(Cl)c3C2)CN1C(=O)[C@@H](Nc1cccc(Oc2ccccc2)c1)C(C)(C)C)C(=O)NS(=O)(=O)C1CC1 [Compound 76] | > 7.00 | > 7.00 |  |  | 
18 | CC[C@@H]1C[C@]1(NC(=O)[C@@H]1C[C@@H](OC(=O)N2Cc3cccc(Cl)c3C2)CN1C(=O)[C@@H](Nc1cccc(C(F)(F)F)c1)C(C)(C)C)C(=O)NS(=O)(=O)C1(C)CC1 [Compound 81] | > 7.00 |  |  | > 7.00 | 
19 | [(3R,5S)-5-((1R,2R)-1-(cyclopropylsulfonylcarbamoyl)-2-ethylcyclopropylcarbamoyl)-1-((S)-3,3-dimethyl-2-(3-(trifluoromethyl)phenylamino)butanoyl)pyrrolidin-3-yl]4-chloroisoindoline-2-carboxylate [Compound 55] |  | > 7.00 |  |  | > 7.00
20 | [(3R,5S)-5-(((1R,2R)-1-(Cyclopropylsulfonylcarbamoyl)-2-ethylcyclopropyl)carbamoyl)-1-((S)-2-(5-ethylthiazol-2-ylamino)-3,3-dimethylbutanoyl)pyrrolidin-3-yl]4-chloroisoindoline-2-carboxylate [Compound 66] |  | > 7.00 |  |  | > 7.00
21 | [(3R,5S)-5-(((1R,2R)-1-(Cyclopropylsulfonylcarbamoyl)-2-ethylcyclopropyl)carbamoyl)-1-((S)-2-(5-isopropylthiazol-2-ylamino)-3-methylbutanoyl)pyrrolidin-3-yl]4-chloroisoindoline-2-carboxylate [Compound 67] |  | > 7.00 |  |  | > 7.00
22 | [(3R,5S)-5-(((1R,2R)-1-(Cyclopropylsulfonylcarbamoyl)-2-ethylcyclopropyl)carbamoyl)-1-((S)-2-cyclohexyl-2-(5-ethylthiazol-2-ylamino)acetyl)pyrrolidin-3-yl]4-chloroisoindoline-2-carboxylate [Compound 64] |  | > 7.00 |  |  | > 7.00
23 | [(3R,5S)-5-(((1R,2S)-1-(cyclopropylsulfonylcarbamoyl)-2-vinylcyclopropyl)carbamoyl)-1-((S)-2-cyclohexyl-2-(5-ethylthiazol-2-ylamino)acetyl)pyrrolidin-3-yl]4-chloroisoindoline-2-carboxylate [Compound 62] |  | > 7.00 |  |  | > 7.00

Reference: US7932277B2, “Peptide inhibitors of hepatitis C virus replication” (InterMune, Inc., priority 2007, dated 2011)
